From patent US20230172924A1, “THERAPEUTIC AGENT FOR BREAST CANCER” (Eisai R&D Management Co., Ltd., priority 2020, published 2023)

Tests used:
[1] = test system: human breast cancer patient-derived tumor (OD-BRE-0438); assay: Antitumor effect of compound A and fulvestrant on OD-BRE-0438 patient-derived tumor subcutaneously transplanted in NOD-SCID mice; type: in vivo; conditions: fulvestrant 250 mg/kg s.c. days 0 and 7, combination both; for Average tumor volume after starting drug administration, Day 0: Day 0, compound A 25 mg/kg oral once a day; for Average tumor volume after starting drug administration, Day 4: Day 4, compound A 25 mg/kg oral once a day; for Average tumor volume after starting drug administration, Day 7: Day 7, compound A 25 mg/kg oral once a day; for Average tumor volume after starting drug administration, Day 11: Day 11, compound A 25 mg/kg oral once a day; for Average tumor volume after starting drug administration, Day 14: Day 14, compound A 25 mg/kg oral once a day
[2] = test system: human-derived breast cancer cell line MCF-7-hCYP19A1; assay: Antitumor effect of compound A and letrozole on subcutaneously transplanted MCF-7-hCYP19A1 tumor in ovariectomized BALB/c nude mice; type: in vivo; conditions: letrozole 0.01 mg/mouse, or both, oral once a day; for Average tumor volume after starting drug administration, Day 0: Day 0, compound A 25 mg/kg; for Average tumor volume after starting drug administration, Day 4: Day 4, compound A 25 mg/kg; for Average tumor volume after starting drug administration, Day 7: Day 7, compound A 25 mg/kg; for Average tumor volume after starting drug administration, Day 11: Day 11, compound A 25 mg/kg; for Average tumor volume after starting drug administration, Day 14: Day 14, compound A 25 mg/kg
[3] = test system: human-derived breast cancer cell line MCF-7-hCYP19A1; assay: Cell number (CellTiter Glo 2.0 emission) of MCF-7-hCYP19A1 cells with Compound A and aromatase inhibitors; type: cell-based; conditions: Compound A 1,000 nmol/L, 7 days culture with androstenedione, FGF2, FGF10, n=3
[4] = Table 3, letrozole 2,000 nmol/L or both
[5] = Table 4, anastrozole 10,000 nmol/L or both
[6] = Table 5, anastrozole 2,000 nmol/L or both

`C[C@]12CC[C@@H]3c4ccc(O)cc4C[C@@H](CCCCCCCCC[S+]([O-])CCCC(F)(F)C(F)(F)F)[C@H]3[C@@H]1CC[C@@H]2O` (some centres unmarked) [Fulvestrant, fulvestrant] was tested, and the “Average tumor volume after starting drug administration, Day 0” value (from here on “Average tumor volume … Day 0”) [1] was 148.7 mm^3, the “Average tumor volume after starting drug administration, Day 4” value (from here on “Average tumor volume … Day 4”) [1] was 172.2 mm^3 and the “Average tumor volume after starting drug administration, Day 7” value (from here on “Average tumor volume … Day 7”) [1] was 208.2 mm^3. For the same molecule, the “Average tumor volume after starting drug administration, Day 11” value (from here on “Average tumor volume … Day 11”) [1] was 207.4 mm^3 and the “Average tumor volume after starting drug administration, Day 14” value (shortened to “Average tumor volume … Day 14”) [1] was 237.6 mm^3.

For `N#Cc1ccc(C(c2ccc(C#N)cc2)n2cncn2)cc1` [Letrozole, letrozole], the “Average tumor volume … Day 0” value [2] was 132.4 mm^3, the “Average tumor volume … Day 4” value [2] was 147.3 mm^3 and the “Average tumor volume … Day 7” value [2] was 140.6 mm^3. For the same molecule, the “Average tumor volume … Day 11” value [2] was 159.6 mm^3, the “Average tumor volume … Day 14” value [2] was 162.0 mm^3 and the “Emission value (count per second)” value [3, 4] was 1,410,920 count per second.

In the case of `CC(C)(C#N)c1cc(Cn2cncn2)cc(C(C)(C)C#N)c1` [Anastrozole, anastrozole], the “Emission value (count per second)” value [3, 5] is reported as 1,443,072 count per second and the “Emission value (count per second)” value [3, 6] is reported as 1,357,941 count per second.

In the case of `CNC(=O)n1ccc2cc(Oc3ccnc(NC(=O)c4ccc(C5CCN(CCO)CC5)cc4)c3)c(OCCOC)cc21` [Compound A, 5-((2-(4-(1-(2-Hydroxyethyl)piperidin-4-yl)benzamide)pyridin-4-yl)oxy)-6-(2-methoxyethoxy)-N-methyl-1H-indole-1-carboxamide], the “Average tumor volume … Day 0” value [2] is reported as 130.7 mm^3, the “Average tumor volume … Day 4” value [2] is reported as 155.5 mm^3 and the “Average tumor volume … Day 7” value [2] is reported as 182.4 mm^3. For the same molecule, the “Average tumor volume … Day 11” value [2] was 224.4 mm^3, the “Average tumor volume … Day 14” value [2] was 267.5 mm^3 and the “Emission value (count per second)” value [3, 4] was 1,242,509 count per second. For the same molecule, the “Emission value (count per second)” value [3, 5] was 1,157,051 count per second, the “Emission value (count per second)” value [3, 6] was 1,157,051 count per second and the “Average tumor volume … Day 0” value [1] was 148.6 mm^3. For the same molecule, the “Average tumor volume … Day 4” value [1] was 192.6 mm^3, the “Average tumor volume … Day 7” value [1] was 211.2 mm^3 and the “Average tumor volume … Day 11” value [1] was 216.5 mm^3. For the same molecule, the “Average tumor volume … Day 14” value [1] was 264.3 mm^3.
